Test results: patent publication US20220274954A1, “SUBSTITUTED N-PHENYL-N-AMINOUARCILS AND SALTS THEREOF AND USE THEREOF AS HERBICIDAL AGENTS” (Bayer Aktiengesellschaft, priority 2019, published 2022)

Experiments:
Assay type in all cases: in vivo
Xanthium strumarium = assay: Comparative post-emergence herbicidal action (with Mero and AMS); conditions: with 1.5 l/ha Mero and 2 kg/ha AMS, rated after 21 days
Excerpt: (§1) Seeds of mono- or dicotyledonous weed plants were sown in pots (diameter 7 cm) with sandy loam soil, germinated under optimium growth conditions and cultivated for 21 days.
(§2) The compounds, formulated in the form of wettable powders (WP) or as emulsion concentrates (EC), were sprayed onto the green parts of the plants as aqueous suspension or emulsion with addition of 1.5 l/ha Mero and 2 kg/ha AMS at a water application rate of 300 l/ha (converted).
(§3) After the test plants had been kept in the greenhouse under optimum growth conditions for 21 days, the activity of the preparations was rated visually in comparison to untreated control plants.
(§4) For example, 100% action=the plants have died and
(§5) 0% action=like control plants.
(§6) Tables C1-C3 below show the effects of a compound according to the invention (I.14-442) and a structurally related compound from WO2019/101551 (No. 16) on various harmful plants and at an application rate corresponding to 18 g/ha and less, which were obtained by the experimental procedure mentioned above.

Solanum nigrum = assay: as above; conditions: with 1.5 l/ha Mero and 2 kg/ha AMS, rated after 21 days
Excerpt: as §1, §2, §3, §4, §5, §6

Polygonum convolvulus [1] = assay: as above; conditions: with 1.5 l/ha Mero and 2 kg/ha AMS, rated after 21 days
Excerpt: as §1, §2, §3, §4, §5, §6

Glycine max [2] = assay: Comparative post-emergence crop plant compatibility (with Mero and AMS)
Excerpt: as §1, §2, §3, §4, §5
(§7) Tables C4 and C5 below show the effects of a compound according to the invention (114-442) and a compound from WO2019/101551 (No. 16) on various crop plants and at an application rate corresponding to 6 g/ha and less, which were obtained by the experimental procedure mentioned above.

Zea mays [3] = assay: as above
Excerpt: as §1, §2, §3, §4, §5, §7

Brassica napus [4] = assay: Pre-emergence crop plant compatibility; conditions: application rate 20 g/ha
Excerpt: (§8) Seeds of monocotyledonous and dicotyledonous weed plants and crop plants were placed in plastic or organic planting pots and covered with soil. The compounds of the invention, formulated in the form of wettable powders (WP) or as emulsion concentrates (EC), were then applied to the surface of the covering soil as aqueous suspension or emulsion with addition of 0.5% additive at a water application rate equivalent to […] (converted). After the treatment, the pots were placed in a greenhouse and kept under good growth conditions for the test plants. After about 3 weeks, the effect of the preparations was scored visually in comparison with untreated controls as percentages. For example, 100% activity=the plants have died, 0% activity=like control plants.
(§9) Here, the observed effects on selected crop plants are stated in comparison to the untreated controls (values in %).

Triticum aestivum = assay: Pre-emergence crop plant compatibility; conditions: application rate 20 g/ha
Excerpt: as §8, §9

Zea mays [5] = assay: Pre-emergence crop plant compatibility; conditions: application rate 20 g/ha
Excerpt: as §8, §9

Digitaria sanguinalis [6] = assay: Pre-emergence herbicidal action; conditions: scored after about 3 weeks
Excerpt: as §8
(§10) Tables B1 to B11 below show the effects of selected compounds of the general formula (I) according to Tables I.1 to I.34 on various harmful plants and at an application rate corresponding to 80 g/ha and less, which were obtained by the experimental procedure mentioned above.

Echinochloa crus-galli [7] = assay: Pre-emergence herbicidal action; conditions: application rate 80 g/ha, scored after about 3 weeks
Excerpt: as §8, §10

Abutilon theophrasti [8] = assay: Pre-emergence herbicidal action; conditions: application rate 80 g/ha, scored after about 3 weeks
Excerpt: as §8, §10

Matricaria inodora [9] = assay: Pre-emergence herbicidal action; conditions: scored after about 3 weeks
Excerpt: as §8, §10

Veronica persica [10] = assay: Pre-emergence herbicidal action; conditions: scored after about 3 weeks
Excerpt: as §8, §10

Polygonum convolvulus [11] = assay: Pre-emergence herbicidal action; conditions: scored after about 3 weeks
Excerpt: as §8, §10

Lolium rigidum = assay: Pre-emergence herbicidal action; conditions: application rate 80 g/ha, scored after about 3 weeks
Excerpt: as §8, §10

Alopecurus myosuroides = assay: Pre-emergence herbicidal action; conditions: application rate 80 g/ha
Excerpt: as §8, §10

Pharbitis purpurea [12] = assay: Pre-emergence herbicidal action; conditions: application rate 80 g/ha, scored after about 3 weeks
Excerpt: as §8, §10

Amaranthus retroflexus [13] = assay: Pre-emergence herbicidal action; conditions: scored after about 3 weeks
Excerpt: as §8, §10

Viola tricolor [14] = assay: Pre-emergence herbicidal action; conditions: scored after about 3 weeks
Excerpt: as §8, §10

Setaria viridis [15] = assay: Pre-emergence herbicidal action; conditions: scored after about 3 weeks
Excerpt: as §8, §10

Glycine max [16] = assay: Post-emergence crop plant compatibility
Outline: (§11)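 Greenhouse plants in sandy loam were sprayed at the one-leaf stage, 2–3 weeks after sowing, with WP or EC formulations in water plus 0.5% additive at […]. Damage was rated visually after about 3 weeks as % versus untreated controls, where 100% means dead plants and 0% means like controls.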

Brassica napus [17] = assay: Post-emergence crop plant compatibility; conditions: application rate 1.25 g/ha
Outline: as §11

Oryza sativa = assay: Post-emergence crop plant compatibility
Outline: as §11

Zea mays [18] = assay: Post-emergence crop plant compatibility; conditions: application rate 1.25 g/ha
Outline: as §11

Digitaria sanguinalis [19] = assay: Post-emergence herbicidal action; conditions: 504 h, application rate 20 g/ha, read-out: Digitaria sanguinalis (efficacy in %)
Outline: (§12)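 Plants grown from seed in sandy loam in the greenhouse were sprayed at the one-leaf stage, 2 to 3 weeks after sowing, with WP or EC formulations in water plus 0.5% additive at 20 g/ha or less. Activity was rated visually after about 3 weeks against untreated controls (100% = plants died, 0% = like control).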

Echinochloa crus-galli [20] = assay: Post-emergence herbicidal action; conditions: Echinochloa crus-galli, 504 h, read-out: Echinochloa crus-galli (efficacy in %)
Outline: as §12

Abutilon theophrasti [21] = assay: Post-emergence herbicidal action; conditions: Abutilon theophrasti, 504 h, read-out: Abutilon theophrasti (efficacy in %)
Outline: as §12

Matricaria inodora [22] = assay: Post-emergence herbicidal action; conditions: Tripleurospermum inodorum, 504 h, read-out: Matricaria inodora (efficacy in %)
Outline: as §12

Veronica persica [23] = assay: Post-emergence herbicidal action; conditions: Veronica persica, 504 h, read-out: Veronica persica (efficacy in %)
Outline: as §12

Polygonum convolvulus [24] = assay: Post-emergence herbicidal action; conditions: Fallopia convolvulus, 504 h, application rate 20 g/ha, read-out: Polygonum convolvulus (efficacy in %)
Outline: as §12

Pharbitis purpurea [25] = assay: Post-emergence herbicidal action; conditions: Ipomoea purpurea, 504 h, application rate 5 g/ha, read-out: Pharbitis purpurea (efficacy in %)
Outline: as §12

Stellaria media = assay: Post-emergence herbicidal action; conditions: application rate 20 g/ha
Outline: as §12

Amaranthus retroflexus [26] = assay: Post-emergence herbicidal action; conditions: Amaranthus retroflexus, 504 h, read-out: Amaranthus retroflexus (efficacy in %)
Outline: as §12

Viola tricolor [27] = assay: Post-emergence herbicidal action; conditions: Viola tricolor, 504 h, read-out: Viola tricolor (efficacy in %)
Outline: as §12

Setaria viridis [28] = assay: Post-emergence herbicidal action; conditions: 504 h, read-out: Setaria viridis (efficacy in %)
Outline: as §12

CCOC(=O)COc1ncccc1Oc1cc(-n2c(=O)c(C)c(C(F)(F)F)n(C)c2=O)c(F)cc1Cl [No. 16]
80%: Solanum nigrum (efficacy in %) (Solanum nigrum; application rate 6 g/ha) | Solanum nigrum (efficacy in %) (Solanum nigrum; application rate 18 g/ha)
40%: Glycine max (efficacy in %) (Glycine max [2]; application rate 2 g/ha) | Zea mays (efficacy in %) (Zea mays [3]; application rate 2 g/ha)
75%: Polygonum convolvulus (efficacy in %) (Polygonum convolvulus [1]; application rate 18 g/ha)
65%: Polygonum convolvulus (efficacy in %) (Polygonum convolvulus [1]; application rate 6 g/ha)
50%: Xanthium strumarium (efficacy in %) (Xanthium strumarium; application rate 6 g/ha) | Glycine max (efficacy in %) (Glycine max [2]; application rate 6 g/ha) | Zea mays (efficacy in %) (Zea mays [3]; application rate 6 g/ha)
85%: Xanthium strumarium (efficacy in %) (Xanthium strumarium; application rate 18 g/ha)

CCOC(=O)COc1ncccc1Sc1cc(-n2c(=O)cc(C(F)(F)F)n(N)c2=O)c(F)cc1Cl [I.1-442, Ethyl {[3-({5-[3-amino-2,6-dioxo-4-(trifluoromethyl)-3,6-dihydropyrimidin-1(2H)-yl]-2-chloro-4-fluorophenyl}sulfanyl)pyridin-2-yl]oxy}acetate]
20%: Glycine max (efficacy in %) (Glycine max [16]; application rate 5 g/ha) | Oryza sativa (efficacy in %) (Oryza sativa; application rate 5 g/ha) | Zea mays (efficacy in %) (Zea mays [18])
100%: Digitaria sanguinalis (efficacy in %) (Digitaria sanguinalis [6]; application rate 20 g/ha) | Digitaria sanguinalis (efficacy in %) (Digitaria sanguinalis [6]; application rate 80 g/ha) | Echinochloa crus-galli (efficacy in %) (Echinochloa crus-galli [7]) | Abutilon theophrasti (efficacy in %) (Abutilon theophrasti [8]) | Matricaria inodora (efficacy in %) (Matricaria inodora [9]; application rate 20 g/ha) | Matricaria inodora (efficacy in %) (Matricaria inodora [9]; application rate 80 g/ha) | Veronica persica (efficacy in %) (Veronica persica [10]; application rate 80 g/ha) | Polygonum convolvulus (efficacy in %) (Polygonum convolvulus [11]; application rate 80 g/ha) | Lolium rigidum (efficacy in %) (Lolium rigidum) | Pharbitis purpurea (efficacy in %) (Pharbitis purpurea [12]) | Amaranthus retroflexus (efficacy in %) (Amaranthus retroflexus [13]; application rate 20 g/ha) | Amaranthus retroflexus (efficacy in %) (Amaranthus retroflexus [13]; application rate 80 g/ha) | Viola tricolor (efficacy in %) (Viola tricolor [14]; application rate 20 g/ha) | Viola tricolor (efficacy in %) (Viola tricolor [14]; application rate 80 g/ha) | Setaria viridis (efficacy in %) (Setaria viridis [15]; application rate 80 g/ha) | pest or weed control at 20 g/ha (Digitaria sanguinalis [19]) | pest or weed control at 5 g/ha (Echinochloa crus-galli [20]; application rate 5 g/ha) | pest or weed control at 20 g/ha (Echinochloa crus-galli [20]; application rate 20 g/ha) | pest or weed control at 5 g/ha (Abutilon theophrasti [21]; application rate 5 g/ha) | pest or weed control at 20 g/ha (Abutilon theophrasti [21]; application rate 20 g/ha) | pest or weed control at 20 g/ha (Matricaria inodora [22]; application rate 20 g/ha) | pest or weed control at 5 g/ha (Veronica persica [23]; application rate 5 g/ha) | pest or weed control at 20 g/ha (Veronica persica [23]; application rate 20 g/ha) | pest or weed control at 20 g/ha (Polygonum convolvulus [24]) | pest or weed control at 5 g/ha (Pharbitis purpurea [25]) | Stellaria media (efficacy in %) (Stellaria media) | pest or weed control at 5 g/ha (Amaranthus retroflexus [26]; application rate 5 g/ha) | pest or weed control at 20 g/ha (Amaranthus retroflexus [26]; application rate 20 g/ha) | pest or weed control at 5 g/ha (Viola tricolor [27]; application rate 5 g/ha) | pest or weed control at 20 g/ha (Viola tricolor [27]; application rate 20 g/ha) | pest or weed control at 5 g/ha (Setaria viridis [28]; application rate 5 g/ha) | pest or weed control at 20 g/ha (Setaria viridis [28]; application rate 20 g/ha)
80%: Veronica persica (efficacy in %) (Veronica persica [10]; application rate 20 g/ha)
0%: Brassica napus (efficacy in %) (Brassica napus [4]) | Zea mays (efficacy in %) (Zea mays [5])
90%: Polygonum convolvulus (efficacy in %) (Polygonum convolvulus [11]; application rate 20 g/ha) | Alopecurus myosuroides (efficacy in %) (Alopecurus myosuroides) | Setaria viridis (efficacy in %) (Setaria viridis [15]; application rate 20 g/ha) | pest or weed control at 5 g/ha (Matricaria inodora [22]; application rate 5 g/ha)
10%: Triticum aestivum (efficacy in %) (Triticum aestivum) | Glycine max (efficacy in %) (Glycine max [16]; application rate 1.25 g/ha) | Brassica napus (efficacy in %) (Brassica napus [17]) | Oryza sativa (efficacy in %) (Oryza sativa; application rate 1.25 g/ha)
